Literature values, collected in patent US8492081B2, “Aldehyde-fixed, dried platelets with covalently attached exogenous active agent and method of making thereof” (The University of North Carolina at Chapel Hill, priority 2003, dated 2013).

How the values were obtained:
Punta Toro virus = settings: free ribavirin, not loaded on platelets; previously shown
[1] = Crotty et al., 2002

NC(=O)c1ncn([C@@H]2O[C@H](CO)[C@@H](O)[C@H]2O)n1 [ribavirin]
concentration range shown to inhibit Punta Toro virus replication in vitro (Punta Toro virus): 4-10 micrograms per ml | concentration range that exhibits antiviral activity in tissue culture [1]: 10 to 100 µM
